≈ marks a conversion by molar mass, not a printed value.
Assays:
[1] = test system: HSV type 2 (HSV-2) strain MS; assay: anti-HSV activity: inhibition of cytopathic effect (CPE), HSV-2; format: cell-based; conditions: Human alphaherpesvirus 2, 100-320 TCID50, human embryonic lung cells, 37° C., 2 to 3 days, read-out: MIC HSV-2 (minimum concentration at which the CPE is inhibited at least by 50%)
Protocol: (§1) A. Human embryonic lung cells are subcultivated in Eagle's MEM supplemented with 10% semi-fetal calf serum.
(§2) B. The cells thus subcultivated are used as a parent culture. A cell suspension obtained from the parent culture by dividing it at 1:2 split is seeded into 96 microwells in an amount of 150 μl/well and incubated in a CO2 -incubator at 37° C. for 4 to 5 days.
(§3) C. The culture field is discarded, and 100- to 320-50% tissue culture infective doses (100-320 TCID50) of HSV type 1 (HSV-1) strain VR-3 or HSV type 2 (HSV-2) strain MS is inoculated. After incubation at 37° C. for 1 hour, the virus fluid is discarded, 150 μl of Eagle's MEM supplemented with 2.5% semi-fetal calf serum and containing an appropriate amount of each test compound is added, and cultivation is carried out at 37° C. Each of the test compounds is usually diluted in the range of from 100 to 1 μg/ml by serial 0.5 log10 decrements.
(§4) D. After cultivation for 2 to 3 days, the degree of the cytopathic effect (CPE) caused by the viral infection in each of the wells is observed microscopically. At the time when the control cultures, in which the test compound is absent, have shown complete CPE by the viral infection, the degree of CPE in each well is rated from 0 to 4.
(§5) E. The minimum concentration at which the CPE is inhibited at least by 50% (indicated by the CPE score not exceeding 2) is defined as the minimum inhibitory concentration (MIC) of the test compound.

[2] = test system: HSV type 1 (HSV-1) strain VR-3; assay: anti-HSV activity: inhibition of cytopathic effect (CPE), HSV-1; format: cell-based; conditions: Human alphaherpesvirus 1; HSV-1 strain VR-3, 100-320 TCID50; human embryonic lung cells; 37° C., 2 to 3 days; read-out: MIC HSV-1 (minimum concentration at which the CPE is inhibited at least by 50%)
Protocol: as §1, §2, §3, §4, §5

CMV strain AD 169 = assay: anti-CMV activity: inhibition of plaque formation; format: cell-based, cytomegalovirus (CMV); conditions: Human betaherpesvirus 5; CMV strain AD 169, about 50 plaque forming units; human embryonic lung cells; 37° C., 4 to 6 days; read-out: MIC CMV (minimum concentration at which the plaque formation is inhibited at least by 50%)
Protocol: as §1
B. The cells thus subcultivated are used as a parent culture. A cell suspension obtained from the parent culture by dividing it at 1:2 split is seeded into 24 semi-microwells in an amount of 150 μl/well and incubated in a CO2 -incubator at 37° C. for 4 to 5 days.
C. The culture fluid is discarded, and about 50 plaque forming units of CMV strain AD 169 is inoculated. After incubation at 37° C. for 1 hour, 400 μl of Eagle's MEM supplemented with 2.5% semi-fetal calf serum and containing an appropriate amount of each test compound is added, and cultivation is carried out at 37° C. Each of the test compounds is usually diluted in the range of from 100 to 1 μg/ml by serial 0.5 log10 decrements.
D. After cultivation for 4 to 6 days, infected cells are stained with a 0.5% Crystal Violet solution, and the number of plaques formed is counted under the microscope.
E. The minimum concentration at which the plaque formation is inhibited at least by 50%, based on the number of plaques formed in the control cultures in which the test compound is absent, is defined as the minimum inhibitory concentration (MIC) of the test compound.

## C=C1[C@H](n2ccc(N)nc2=O)O[C@H](CO)[C@H]1O [NH2 H H H, 2'-methylidene-2'-deoxycytidine]
[1]
  MIC: 1 µg/mL (≈ 4.18 µM)
[2]
  MIC: 1 µg/mL (≈ 4.18 µM)
CMV strain AD 169
  MIC: 0.1 µg/mL (≈ 0.418 µM)

## C=C1[C@H](n2cc(Br)c(=O)[nH]c2=O)O[C@H](CO)[C@H]1O [OH Br H H, 2'-methylidene-2'-deoxy-5-bromouridine]
[1]
  MIC: 3.2 µg/mL (≈ 10 µM)
[2]
  MIC: 3.2 µg/mL (≈ 10 µM)

## CC=C1[C@H](n2cc(C)c(=O)[nH]c2=O)O[C@H](CO)[C@H]1O [OH CH3 CH3 H, 2'-ethylidenethymidine]
[1]
  MIC: 32 µg/mL (≈ 119 µM)
[2]
  MIC: 10 µg/mL (≈ 37.3 µM)

## C=C1[C@H](n2cc(C)c(=O)[nH]c2=O)O[C@H](CO)[C@H]1O [OH CH3 H H, 2'-methylidenethymidine]
[1]
  MIC: 1 µg/mL (≈ 3.93 µM)
[2]
  MIC: 1 µg/mL (≈ 3.93 µM)
CMV strain AD 169
  MIC: 5.6 µg/mL (≈ 22 µM)

## C=C1[C@H](n2cc(Cl)c(=O)[nH]c2=O)O[C@H](CO)[C@H]1O [OH Cl H H, 2'-methylidene-2'-deoxy-5-chlorouridine]
[1]
  MIC: 10 µg/mL (≈ 36.4 µM)
[2]
  MIC: 10 µg/mL (≈ 36.4 µM)

## C=C1[C@H](n2cc(I)c(=O)[nH]c2=O)O[C@H](CO)[C@H]1O [OH I H H, 2'-methylidene-2'-deoxy-5-iodouridine]
[1]
  MIC: 1 µg/mL (≈ 2.73 µM)
[2]
  MIC: 1 µg/mL (≈ 2.73 µM)

Source: patent US5047520A, “2'-alkylidenepyrimidine nucleoside derivatives, process for production thereof, and uses thereof” (Yamasa Shoyu Kabushiki Kaisha, priority 1987, dated 1991)
